The text below walks through data of patent US10202579B2, “Methods for producing mammalian pluripotent stem cell-derived endodermal cells” (Takara Bio Europe AB, priority 2012, dated 2019).

For this experiment, the system named is hPSC lines P11032, SA181 and P11012. Nature of the experiment: DE differentiation of 3 hPSC lines with 5-aza-2-deoxycytidine or 5-azacytidine, qRT-PCR marker expression (Example 5). The experiment is classed as cell-based, human. The following applies: 1 μM on day 2-3. The method, then: Following the basic protocols A (hPSC lines P11032, and SA181) or B (hPSC line P11012), cells derived from 3 different hPSC lines were treated with either 10 nM 5-aza-2-deoxycytidine or 1 μM 5-azacytidine on day 2-3 during the hPS differentiation into definitive endodem.
For analysis of mRNA expression, hESC- and hiPSC-derived DE-cells were harvested on day 7 of the protocol and gene expression was analysed using qRT-PCR, normalised to the house-keeping gene CREBBP, and the results presented as relative quantification normalised to a calibrator.
For orientation: Quantitative PCR measures a nucleic acid by following its amplification.

In the case of `Nc1ncn([C@@H]2O[C@H](CO)[C@@H](O)[C@H]2O)c(=O)n1` [5-azacytidine], for the setting “day 7”, the “mRNA expression of the DE marker Cxcr4” value is recorded as “No significant changes” and the “mRNA expression of the DE marker Sox17” value is listed as “No significant changes”. For the same compound, for the setting “day 7, vs without treatment”, the “Nanog mRNA” value is recorded as “significantly decreased” and the “Oct4 mRNA” value is recorded as “significantly decreased”. The “Homogeneity of derived DE population” value (lines give heterogeneous DE if untreated) was “allowed derivation of a homogeneous DE population”.
